Measured values from US8058281B2, “Use of adenine-derived compounds for the treatment of lupus” (Centre National de la Recherche Scientifique (CNRS), priority 2006, dated 2011).
“And” between values parts separate entries of the source, which are not always exact repeats. Equal values may be shown once. Read-outs that look alike come from different tables or passages of the source.

Tests used:
PDE1 = PDE1 inhibition, radioenzyme assay, enzyme isolated from vascular tissue; assay type: biochemical, bovine; details: PDEs isolated from vascular tissue; 1 μM substrate
Protocol: (§1) Cyclic nucleotides phosphodiesterase activity was measured by a radioenzyme method using tritiated cyclic AMP or GMP (1 μM) as substrate (Lugnier C. et al., Biochem. Pharmacol. (1986) 35, 1743-1751; Keravis T et al., Meth. Mol. Biol. (2005) 307, 63-74.). Tritiated adenosine or guanosine monophosphate formed by hydrolysis of the labelled cyclic nucleotide was transformed, in a second incubation with excess nucleotidase, into tritiated adenosine or guanosine. The formed nucleoside was separated from nucleotides by anion exchange resin chromatography. The radioactivity of the nucleoside was measured by liquid scintillation. […]
(§2) A 3 g piece of bovine aortic media was chopped up with scissors, homogenised using an Ultra-Turrex then using a glass/glass Potter in 7 volumes/weight of buffer A containing a cocktail of protease inhibitors (20 mM Tris-HCl, 0.25 M saccharose, 2 mM magnesium acetate, 1 mM dithiothreitol, 5 mM EGTA, 2000 U/ml aprotinine, 10 mg/l leupeptine and 10 mg/l soy-bean trypsin inhibitor). […] The column was washed until no absorption at 280 nm could be detected, then elution was with a linear NaCl gradient (0-0.5 M) in buffer B. 3 ml fractions were collected and enzymatic activity was measured under various conditions so as to determine the peaks of enzymatic activity contained in the fractions for, in the order of elution, PDE1, PDE5, PDE3 and PDE4. […]

PDE2 = biological target: T1, PDE2 (Homo sapiens, UniProt O00408); assay: PDE2 inhibition, radioenzyme assay, enzyme isolated from platelets; assay type: biochemical; details: 1 μM substrate
T1 construct: from tissue; host or cells: human platelets, cytosol, DEAE-Sephacel then MonoQ HPLC
Protocol: (§3) Cyclic nucleotides phosphodiesterase activity was measured by a radioenzyme method using tritiated cyclic AMP or GMP (1 μM) as substrate (Lugnier C. et al., Biochem. Pharmacol. (1986) 35, 1743-1751; Keravis T et al., Meth. Mol. Biol. (2005) 307, 63-74.). Tritiated adenosine or guanosine monophosphate formed by hydrolysis of the labelled cyclic nucleotide was transformed, in a second incubation with excess nucleotidase, into tritiated adenosine or guanosine. The formed nucleoside was separated from nucleotides by anion exchange resin chromatography. The radioactivity of the nucleoside was measured by liquid scintillation. Enzyme incubations were carried out under conditions in which there was no more than 15% of substrate hydrolysis, and each point was repeated.
Washed human platelets from the French Blood Bank (Etablissement Francais du Sang) in Strasburg were left to stand, then the sedimented cells were homogenised in buffer A and centrifuged at 105.000 g for 1 hour. The supernatant was subject to chromatography following the procedure already described for the aortic media (C-2). Then the fractions rich in PDE2 (activity stimulated by 5 μM cGMP) were subject to HPLC chromatography using Pharmacia's MonoQ H/R 5×5. The fraction containing PDE2 was aliquoted and stored at −80° C. (Kameni Tcheudji J. F et al, J. Mol. Biol. (2001) 310, […].). […]

PDE6 = PDE6 (so in the source) inhibition, radioenzyme assay, enzyme isolated from vascular tissue; assay type: biochemical, bovine; details: PDEs isolated from vascular tissue; 1 μM substrate
Protocol: as §1, §2

PDE4 = PDE4 inhibition, radioenzyme assay, enzyme isolated from vascular tissue; assay type: biochemical, bovine; details: PDEs isolated from vascular tissue; 1 μM substrate
Protocol: as §1, §2

PDE5 = biological target: T2, PDE5 (Bos taurus, UniProt Q28156); assay: PDE5 inhibition, radioenzyme assay, enzyme isolated from vascular tissue; assay type: biochemical, bovine; details: PDEs isolated from vascular tissue; 1 μM substrate
T2 construct: Effects of compound NCS 613 on PDEs isolated; from tissue; host or cells: bovine aortic media, cytosol, DEAE-Sephacel fraction
Protocol: as §1, §2

recombinant PDE4A = recombinant PDE4A (Homo sapiens, UniProt P27815); assay: Inhibition of recombinant PDE4 subtype PDE4A; assay type: biochemical
Protocol: as §3
(§4) The concentration of the substance causing 50% inhibition of enzymatic activity (IC50) at 1 μM substrate was calculated by non-linear regression (Prism, GraphPad) with the help of the results obtained for compound concentrations that varied as the molecule concentration was increased from 1 nM to 300 μM. Because of solubility problems, the maximum concentration used in this study was limited to 300 μM.

recombinant PDE4B = recombinant PDE4B (Homo sapiens, UniProt Q07343); assay: Inhibition of recombinant PDE4 subtype PDE4B; assay type: biochemical
Protocol: as §3, §4

recombinant PDE4C = recombinant PDE4C (Homo sapiens, UniProt Q08493); assay: Inhibition of recombinant PDE4 subtype PDE4C; assay type: biochemical
Protocol: as §3, §4

recombinant PDE4D = recombinant PDE4D (Homo sapiens, UniProt Q08499); assay: Inhibition of recombinant PDE4 subtype PDE4D; assay type: biochemical
Protocol: as §3, §4

MRL/lpr mice [1] = assay: Proteinuria in MRL/lpr lupus mice; assay type: in vivo, mouse
Protocol: FIG. 1: Effect of compound NCS 613 and denbufylline on proteinuria in MRL/lpr mice. Up to the age of 13 weeks, the mice received 4 administrations either of 30 μg of compound NCS 613 or of 100 μg of denbufylline.
(§5) Pre-autoimmune female MRL/lpr mice aged 5 weeks received by intravenous route, either buffered saline (PBS; control group, 100 μl per mouse), or compound NCS 613, (30 μg/100 μl per mouse, diluted in saline solution containing 10% ethanol), or denbufylline (100 μg/100 μl per mouse, diluted in saline solution containing 10% ethanol). The […] groups were composed of 10 mice each. The administrations (4 in number) were carried out at the ages of 5, 7, 9 and 13 weeks, and mice were monitored regularly (observations, proteinuria test by Albutix strip, blood tests).

MRL/lpr mice [2] = assay: Survival of MRL/lpr lupus mice; assay type: in vivo, mouse; details: for effect on survival / life expectancy of MRL/lpr mice: 4 i.v. administrations (NCS 613 30 μg, denbufylline 100 μg), followed to 26 weeks
Protocol: FIG. 2: Effect of compound NCS 613 (A) and denbufylline (B) on survival of MRL/lpr lupus mice. Up to the age of 13 weeks, the mice received 4 administrations either of 30 μg of compound NCS 613 or of 100 μg of denbufylline. The results are expressed in percentage survival of mice. Control mice received only PBS (phosphate buffered saline, pH 7.4) without the active ingredient.
as §5

[3] = system: TNF-α secretion by blood cells of MRL/lpr mice; assay: TNF-α secretion by blood cells from treated mice after ex vivo LPS stimulation; assay type: in vivo, mouse; details: LPS 24 h ex vivo
Protocol: FIG. 3: Effect of compound NCS 613 and denbufylline on the production of TNF-α by blood cells from treated mice after LPS stimulation. TNF-α secretion by blood cells from mice having received saline solution (PBS), compound NCS 613 or denbufylline after ex vivo LPS stimulation for 24 hours was measured in the supernatants by ELISA. The error bars show the standard deviation of duplicates, and the percentage inhibition of TNF-α secretion as a function of the secretion measured in the PBS group is shown. The figures refer to experiments carried out on mice aged 11 (A) and 14 (B) weeks.
as §5
TNF-α secretion was measured after bacterial lipopolysaccharide (LPS) stimulation of mouse blood cells (blood pooled from the 7 mice per group). LPS cell stimulation for 24 hours generates TNF-α secretion which can then be measured in culture supernatants. Cells from the blood of the 3 groups of mice were separated on a Ficoll gradient, and then stimulated by LPS. Supernatants were collected after 24 hours of culture, and the presence of TNF-α in supernatants was measured by a double sandwich ELISA test (BD Biosciences). This experiment was carried out at different ages (11 and 14 weeks, that is 2 weeks after the 3rd administration and 1 week after the 4th administration respectively).

MRL/lpr mice [4] = assay: Anti-double-stranded DNA antibodies in serum of MRL/lpr mice (ELISA); assay type: in vivo, mouse; details: for percentage of mice positive for anti-DNA Abs in serum: positive = OD > 1; for age at which first anti-DNA Ab positive mice appeared: treatment stopped at 13 weeks
Protocol: FIG. 4: Effect of compound NCS 613 and denbufylline on anti-double-stranded DNA Abs. The presence of Abs directed against DNA in murine serums was measured at different ages (in weeks) by ELISA. Results are shown as a percentage of positive mice. A mouse is defined as positive when the optical density (OD) measured by ELISA is greater than 1.
as §5
The presence of Abs directed against DNA in murine serums was measured at different ages by ELISA (Monneaux et al., Eur. J. Immunol. (2003) 33, 287-296; Monneaux et al, Arthritis Rheum (2004) 50, 3232-3238.). Calf thymus double-stranded DNA (Sigma) was adsorbed (100 ng/ml) on 96 well polyvinyl chloride plates (Falcon) and incubated overnight at 37° C. After three washes and a saturation step in PBS-Tween buffer containing bovine serum albumin, serums (diluted to 1/500) were incubated for one hour at 37° C. […] The absorbance was measured at 450 nm by spectrophotometry after the reaction had been stopped.

[5] = system: TNF-α secretion by PBMCs of patients with auto-immune diseases; assay: TNF-α secretion after LPS stimulation of mononuclear blood cells of autoimmune patients; assay type: cell-based, human; details: for inhibition at 10 µM: Homo sapiens, PBMC
Protocol: FIG. 5. Inhibition of TNF-α secretion by compound NCS 613 after LPS stimulation of the PBMCs of patients with auto-immune diseases. Blood cells from patients with lupus (SLE), rheumatoid arthritis (RA) and Sjögren's syndrome (SS) were incubated for 45 minutes in the presence or absence of NCS 613 (10 μM), then stimulated with LPS. The supernatants were recovered after 24 hours of culture and the level of TNF-α in supernatants was measured by ELISA. The results are given in TNF-α concentration after incubation in the presence or absence of NCS 613 (A) or as inhibition of TNF-α secretion after incubation with NCS 613 (B). Error bars show the standard deviation of duplicates.
(§6) The blood of 5 patients with lupus, rheumatoid arthritis or Sjögren's syndrome was collected directly in heparinated tubes. Mononuclear blood cells were separated by centrifugation (30 min at 600 g) on a Ficoll gradient. Cells were then grown at a concentration of 2×10^5 cells per well in the presence or absence of compound NCS 613 (10 μM) for 45 minutes then stimulated with LPS. Supernatants were recovered after 24 hours of culture and the level of TNF-α in supernatants was measured by double sandwich ELISA (BD Biosciences).

[6] = system: TNF-α secretion by PBMCs of a lupus patient; assay: Basal TNF-α secretion by mononuclear blood cells of a lupus patient; assay type: cell-based; details: Homo sapiens, PBMC, no LPS stimulation, one lupus patient, read-out: inhibition of spontaneous (basal) TNF-α secretion
Protocol: FIG. 6: Inhibition of TNF-α secretion by PBMCs of a lupus patient after incubation with NCS 613. The blood cells of a lupus patient (LED2) were incubated in the presence or absence of NCS 613 (10 μM). Supernatants were recovered after 24 hours of culture and the level of TNF-α in the supernatants was measured by ELISA. The results are given as TNF-α concentration after incubation in the presence or absence of NCS 613 and the percentage inhibition of TNF-α secretion after incubation with NCS 613 is shown. Error bars show the standard deviation of duplicates.
as §6
So the ability of compound NCS 613 to inhibit basal TNF-α secretion was studied in blood cells of this patient.

[7] = at 20 weeks of age, 4 i.v. administrations at 5, 7, 9, 13 weeks (NCS 613 30 μg, denbufylline 100 μg)
[8] = mice aged 11 weeks (2 weeks after 3rd administration)
[9] = mice aged 14 weeks (1 week after 4th administration)

T1 sequence (O00408 whole entry): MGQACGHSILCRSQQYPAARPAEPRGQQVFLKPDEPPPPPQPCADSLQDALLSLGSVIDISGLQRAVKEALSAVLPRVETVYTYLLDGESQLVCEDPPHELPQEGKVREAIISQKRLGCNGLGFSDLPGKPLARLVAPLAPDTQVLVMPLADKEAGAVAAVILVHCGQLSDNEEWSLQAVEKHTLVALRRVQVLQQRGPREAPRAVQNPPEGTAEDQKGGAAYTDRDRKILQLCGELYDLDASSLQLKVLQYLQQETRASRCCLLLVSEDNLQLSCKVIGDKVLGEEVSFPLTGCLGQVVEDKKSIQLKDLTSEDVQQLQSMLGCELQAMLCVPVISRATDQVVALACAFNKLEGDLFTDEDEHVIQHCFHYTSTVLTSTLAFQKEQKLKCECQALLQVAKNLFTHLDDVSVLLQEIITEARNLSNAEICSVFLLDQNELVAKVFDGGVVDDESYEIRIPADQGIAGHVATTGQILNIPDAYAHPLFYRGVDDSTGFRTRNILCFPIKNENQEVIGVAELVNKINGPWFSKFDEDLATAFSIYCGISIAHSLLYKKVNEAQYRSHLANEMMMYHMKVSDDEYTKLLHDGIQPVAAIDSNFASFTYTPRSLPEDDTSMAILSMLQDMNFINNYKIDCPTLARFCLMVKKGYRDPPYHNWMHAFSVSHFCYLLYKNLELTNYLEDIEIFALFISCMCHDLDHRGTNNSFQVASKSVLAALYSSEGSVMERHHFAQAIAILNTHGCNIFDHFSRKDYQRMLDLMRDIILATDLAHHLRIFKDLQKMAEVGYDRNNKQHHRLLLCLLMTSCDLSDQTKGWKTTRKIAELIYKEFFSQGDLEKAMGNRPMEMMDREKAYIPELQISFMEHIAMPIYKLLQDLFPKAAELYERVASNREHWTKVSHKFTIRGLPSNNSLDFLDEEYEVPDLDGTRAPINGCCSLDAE
Sequence of recombinant PDE4C (Q08493 whole entry, species assumed): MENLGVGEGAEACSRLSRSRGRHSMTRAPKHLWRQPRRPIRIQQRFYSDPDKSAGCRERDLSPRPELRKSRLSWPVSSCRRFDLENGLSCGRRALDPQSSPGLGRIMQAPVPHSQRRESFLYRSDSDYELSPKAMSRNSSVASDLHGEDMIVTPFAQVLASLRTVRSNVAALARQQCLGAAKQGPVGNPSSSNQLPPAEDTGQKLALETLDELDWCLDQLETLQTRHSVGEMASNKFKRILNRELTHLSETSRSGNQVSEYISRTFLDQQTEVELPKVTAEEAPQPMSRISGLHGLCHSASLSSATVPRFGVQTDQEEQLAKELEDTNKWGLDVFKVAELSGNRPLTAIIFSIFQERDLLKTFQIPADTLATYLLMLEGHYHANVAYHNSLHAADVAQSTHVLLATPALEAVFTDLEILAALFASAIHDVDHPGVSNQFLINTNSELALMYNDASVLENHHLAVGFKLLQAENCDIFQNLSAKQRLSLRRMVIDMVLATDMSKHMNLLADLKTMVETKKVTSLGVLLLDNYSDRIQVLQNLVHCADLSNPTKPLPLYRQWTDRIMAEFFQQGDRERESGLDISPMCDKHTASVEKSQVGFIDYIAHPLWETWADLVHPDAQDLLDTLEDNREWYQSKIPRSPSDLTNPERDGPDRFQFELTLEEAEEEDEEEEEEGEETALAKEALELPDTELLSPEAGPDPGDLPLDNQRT
Sequence of recombinant PDE4D (Q08499 whole entry, species assumed): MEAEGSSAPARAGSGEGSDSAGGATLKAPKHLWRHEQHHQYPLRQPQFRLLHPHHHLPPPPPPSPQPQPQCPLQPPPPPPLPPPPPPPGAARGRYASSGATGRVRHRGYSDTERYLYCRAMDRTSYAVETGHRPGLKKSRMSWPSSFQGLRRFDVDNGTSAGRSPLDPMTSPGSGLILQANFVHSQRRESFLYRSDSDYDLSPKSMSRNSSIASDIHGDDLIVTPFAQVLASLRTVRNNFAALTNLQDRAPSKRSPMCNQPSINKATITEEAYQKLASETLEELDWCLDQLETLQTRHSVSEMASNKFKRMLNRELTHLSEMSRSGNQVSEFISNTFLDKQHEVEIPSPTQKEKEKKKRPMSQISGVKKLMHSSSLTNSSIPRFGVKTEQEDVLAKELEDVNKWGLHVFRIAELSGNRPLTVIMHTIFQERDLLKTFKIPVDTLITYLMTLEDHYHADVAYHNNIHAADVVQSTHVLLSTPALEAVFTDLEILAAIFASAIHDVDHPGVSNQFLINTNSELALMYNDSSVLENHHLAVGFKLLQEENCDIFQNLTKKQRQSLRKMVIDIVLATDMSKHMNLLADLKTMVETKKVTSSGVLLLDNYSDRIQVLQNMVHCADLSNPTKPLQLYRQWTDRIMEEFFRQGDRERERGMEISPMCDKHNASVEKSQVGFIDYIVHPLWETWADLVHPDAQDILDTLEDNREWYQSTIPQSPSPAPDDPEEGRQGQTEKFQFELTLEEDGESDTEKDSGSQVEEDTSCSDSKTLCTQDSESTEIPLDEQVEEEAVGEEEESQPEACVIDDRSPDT
Sequence of recombinant PDE4B (Q07343 whole entry, species assumed): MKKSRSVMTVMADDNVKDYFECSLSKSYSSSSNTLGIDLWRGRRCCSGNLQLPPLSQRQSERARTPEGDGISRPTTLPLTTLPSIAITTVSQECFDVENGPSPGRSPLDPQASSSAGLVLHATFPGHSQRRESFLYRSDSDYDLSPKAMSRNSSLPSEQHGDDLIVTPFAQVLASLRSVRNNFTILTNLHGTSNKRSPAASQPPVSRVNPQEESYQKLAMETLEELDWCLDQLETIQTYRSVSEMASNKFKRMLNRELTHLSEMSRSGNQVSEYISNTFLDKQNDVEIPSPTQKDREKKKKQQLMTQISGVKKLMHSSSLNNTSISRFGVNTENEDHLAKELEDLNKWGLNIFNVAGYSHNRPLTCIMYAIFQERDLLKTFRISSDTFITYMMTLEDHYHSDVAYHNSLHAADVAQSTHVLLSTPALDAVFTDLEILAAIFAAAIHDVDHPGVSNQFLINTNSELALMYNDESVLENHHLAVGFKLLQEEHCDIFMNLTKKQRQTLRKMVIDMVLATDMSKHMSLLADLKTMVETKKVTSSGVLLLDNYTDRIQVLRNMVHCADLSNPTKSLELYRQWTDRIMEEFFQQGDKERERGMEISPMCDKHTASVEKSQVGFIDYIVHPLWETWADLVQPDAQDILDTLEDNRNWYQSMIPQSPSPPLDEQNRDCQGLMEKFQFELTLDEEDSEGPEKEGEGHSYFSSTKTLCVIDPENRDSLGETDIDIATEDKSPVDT
Sequence of recombinant PDE4A (P27815 whole entry, species assumed): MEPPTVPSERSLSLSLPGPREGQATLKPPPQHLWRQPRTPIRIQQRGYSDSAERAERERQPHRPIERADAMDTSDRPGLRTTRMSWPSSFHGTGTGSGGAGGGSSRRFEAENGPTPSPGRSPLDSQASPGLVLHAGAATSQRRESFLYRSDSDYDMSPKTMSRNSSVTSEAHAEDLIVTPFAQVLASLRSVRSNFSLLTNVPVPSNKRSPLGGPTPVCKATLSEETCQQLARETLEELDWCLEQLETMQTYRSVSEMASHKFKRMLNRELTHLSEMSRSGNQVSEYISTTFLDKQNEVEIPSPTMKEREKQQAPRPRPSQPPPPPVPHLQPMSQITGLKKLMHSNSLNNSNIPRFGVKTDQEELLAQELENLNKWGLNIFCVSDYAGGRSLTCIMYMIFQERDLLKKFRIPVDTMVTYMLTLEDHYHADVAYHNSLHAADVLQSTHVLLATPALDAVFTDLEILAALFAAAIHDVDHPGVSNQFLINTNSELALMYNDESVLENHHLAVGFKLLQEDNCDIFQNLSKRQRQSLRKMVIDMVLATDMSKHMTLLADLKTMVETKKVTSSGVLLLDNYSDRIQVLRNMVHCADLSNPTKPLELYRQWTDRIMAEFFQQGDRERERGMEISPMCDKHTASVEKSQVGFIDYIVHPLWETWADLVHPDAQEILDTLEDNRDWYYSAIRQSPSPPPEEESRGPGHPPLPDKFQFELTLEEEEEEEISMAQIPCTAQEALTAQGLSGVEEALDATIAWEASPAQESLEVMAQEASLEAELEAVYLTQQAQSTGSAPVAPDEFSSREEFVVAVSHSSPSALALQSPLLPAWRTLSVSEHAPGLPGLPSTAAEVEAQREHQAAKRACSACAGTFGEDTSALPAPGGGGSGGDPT

Row | Compound | IC50 (PDE1) [µM] | IC50 (PDE2) [µM] | IC50 (PDE4) [µM] | IC50 (PDE5) [µM] | percentage of mice with proteinuria detected (MRL/lpr mice [1]; [7]) | effect on survival / life expectancy of MRL/lpr mice (MRL/lpr mice [2]) | inhibition percentage of TNF-α secretion vs PBS control group [3, 8] | inhibition percentage of TNF-α secretion vs PBS control group [3, 9] | age at which first anti-DNA Ab positive mice appeared (MRL/lpr mice [4]) [weeks] | other results
1 | CNc1nc(C(F)(F)F)nc2c1ncn2Cc1ccccc1F [NCS 613, 9-(2-fluorobenzyl)-N(6)-methyl-2-trifluoromethyladenine] | 39 | 24 | 0.042 | 4.7 | 50% | markedly prolongs the life expectancy | 44% | 54% | 20 | IC50 (PDE6): > 300 µM; IC50 (recombinant PDE4A): 0.043 µM; IC50 (recombinant PDE4B): 0.05 µM; IC50 (recombinant PDE4C): 0.0014 µM; IC50 (recombinant PDE4D): 0.014 µM; percentage of mice with proteinuria detected (MRL/lpr mice [1]; at 14 weeks of age, 4 i.v. administrations at 5, 7, 9, 13 weeks (NCS 613 30 μg)): 10%; mortality (MRL/lpr mice [2]; at 21 weeks of age, 4 i.v. administrations of 30 μg): 30%; percentage of mice positive for anti-DNA Abs in serum (MRL/lpr mice [4]; at 20 weeks of age): 20%; percentage of mice positive for anti-DNA Abs in serum (MRL/lpr mice [4]; at 26 weeks of age, 13 weeks after end of treatment): 50%; inhibition percentage of TNF-α secretion by mononuclear blood cells of lupus (SLE) patients, individual patients ([5]; 10 μM, LPS stimulation, 3 lupus patients): 69% and 91% and 98%; inhibition at 10 µM ([5]; LPS stimulation, mean of 3 patients, read-out: mean inhibition percentage of TNF-α secretion by mononuclear blood cells of lupus (SLE) patients): 86%; inhibition at 10 µM ([5]; patients with SLE, RA, Sjögren's syndrome, read-out: inhibition of TNF-α production by LPS-stimulated blood cells of autoimmune patients): 70 to 98%; inhibition at 10 µM [6]: 67%
2 | CCCCn1c(=O)c2c(ncn2CC(C)=O)n(CCCC)c1=O [Denbufylline, denbufylline, reference compound] | 33 | 208 | 0.76 | 5.4 | equivalent to that of control mice | no acknowledged effect on mouse survival | Equivalent results | even greater than that obtained with compound NCS 613 | 14 | IC50 PDE6 (PDE6): n.s; age at which mortality begins (MRL/lpr mice [2]; 4 i.v. administrations of 100 μg): 15 weeks
